Patent publication US12396461B2, “Functional peptides having antimicrobial activity against phytopathogenic microorganisms” (TOYOTA JIDOSHA KABUSHIKI KAISHA, priority 2019, dated 2025)
Several values for one entry are separate records, joined by “and”; a condition that tells them apart may be missing. Identical values can stand only once. Like-named read-outs stand apart in the source and are kept apart here.

Key:
Botrytis cinerea = assay type: cell-based; set-up: key to Plate antimicrobial activity test Botrytis cinerea, level: a case where hyphae extended to the entire well and no antimicrobial activity was found is defined as “level 0,”; a case where hyphae extended to less than a half of the well and thus the peptide inhibited the growth of the hyphae is defined as “level 1,”; a case where ungerminated spores were present and the peptide partially inhibited the germination is defined as “level 2,”; a case where all spores were ungerminated and the peptide completely inhibited the germination is defined as “level 3.”; conditions: 25° C. for 1 day or 2 days, microscopic observation
[1] = test system: Colletotrichum destructivum; assay type: cell-based; set-up: key to Plate antimicrobial activity test Colletotrichum destructivum, level: a case where hyphae extended to the entire well and no antimicrobial activity was found is defined as “level 0,”; a case where hyphae extended to less than a half of the well and thus the peptide inhibited the growth of the hyphae is defined as “level 1,”; a case where ungerminated spores were present and the peptide partially inhibited the germination is defined as “level 2,”; a case where all spores were ungerminated and the peptide completely inhibited the germination is defined as “level 3.”; conditions: 25° C. for 1 day or 2 days, microscopic observation
[2] = test system: Colletotrichum orbiculare; assay type: cell-based; set-up: key to Plate antimicrobial activity test Colletotrichum orbiculare, level: a case where hyphae extended to the entire well and no antimicrobial activity was found is defined as “level 0,”; a case where hyphae extended to less than a half of the well and thus the peptide inhibited the growth of the hyphae is defined as “level 1,”; a case where ungerminated spores were present and the peptide partially inhibited the germination is defined as “level 2,”; a case where all spores were ungerminated and the peptide completely inhibited the germination is defined as “level 3.”; conditions: 25° C. for 1 day or 2 days, microscopic observation
Fusarium oxysporum = assay type: cell-based; set-up: key to Plate antimicrobial activity test Fusarium oxysporum, level: a case where hyphae extended to the entire well and no antimicrobial activity was found is defined as “level 0,”; a case where hyphae extended to less than a half of the well and thus the peptide inhibited the growth of the hyphae is defined as “level 1,”; a case where ungerminated spores were present and the peptide partially inhibited the germination is defined as “level 2,”; a case where all spores were ungerminated and the peptide completely inhibited the germination is defined as “level 3.”
Pyricularia oryzae = assay type: cell-based; set-up: key to Plate antimicrobial activity test Pyricularia oryzae, level: a case where hyphae extended to the entire well and no antimicrobial activity was found is defined as “level 0,”; a case where hyphae extended to less than a half of the well and thus the peptide inhibited the growth of the hyphae is defined as “level 1,”; a case where ungerminated spores were present and the peptide partially inhibited the germination is defined as “level 2,”; a case where all spores were ungerminated and the peptide completely inhibited the germination is defined as “level 3.”; conditions: 25° C. for 1 day or 2 days, microscopic observation
[3] = test system: Colletotrichum destructivum; test: Colletotrichum destructivum leaf inoculation test (Chinese cabbage leaf); assay type: in vivo; conditions: peptide 100 μM; Chinese cabbage leaf, 25° C. for 4 days, lesions by visual inspection; symbols ◯/Δ/X not defined
Method: In the present example, a suspension comprising Colletotrichum destructivum and a peptide to be tested was dropped on a plant leaf, and lesions were then observed by visual inspection to evaluate the antimicrobial activity of the tested peptide. First, the pores of Colletotrichum destructivum were suspended in water to result in a spore concentration of 5×10^5 spores/ml, so as to prepare a water suspension of spores. Subsequently, a peptide to be tested (TsORF6-1) was added to the water suspension of spores, so that the final concentration of the peptide to be tested became 0 μM, 1 μM, 10 μM or 100 μM. Thereafter, 10 μl each of the water suspension of spores containing the peptide to be tested was dropped on the front side and the back side of the leaf of Chinese cabbage (variety name: “Kigokoro 85”). In this condition, incubation was carried out at 25° C. for 4 days. Thereafter, the front and back sides of the leaf were observed by visual inspection.

[4] = test system: plant pathogenic filamentous fungi; assay type: cell-based; conditions: Table 3

| Substance | Plate antimicrobial activity test Botrytis cinerea, level (Botrytis cinerea; peptide 1 μM) | Plate antimicrobial activity test Botrytis cinerea, level (Botrytis cinerea; peptide 10 μM) | Plate antimicrobial activity test Botrytis cinerea, level (Botrytis cinerea; peptide 100 μM) | Plate antimicrobial activity test Colletotrichum destructivum, level ([1]; peptide 1 μM) | Plate antimicrobial activity test Colletotrichum destructivum, level ([1]; peptide 10 μM) | Plate antimicrobial activity test Colletotrichum destructivum, level ([1]; peptide 100 μM) | Plate antimicrobial activity test Colletotrichum orbiculare, level ([2]; peptide 1 μM) | Plate antimicrobial activity test Colletotrichum orbiculare, level ([2]; peptide 10 μM) | Plate antimicrobial activity test Colletotrichum orbiculare, level ([2]; peptide 100 μM) | Plate antimicrobial activity test Fusarium oxysporum, level (Fusarium oxysporum) | Plate antimicrobial activity test Pyricularia oryzae, level (Pyricularia oryzae; peptide 1 μM) | Plate antimicrobial activity test Pyricularia oryzae, level (Pyricularia oryzae; peptide 10 μM) | Plate antimicrobial activity test Pyricularia oryzae, level (Pyricularia oryzae; peptide 100 μM) | Leaf inoculation test Chinese cabbage/Colletotrichum destructivum [3] | germination inhibitory activity against plant pathogenic filamentous fungi, result in words [4] |
| --- | --- | --- | --- | --- | --- | --- | --- | --- | --- | --- | --- | --- | --- | --- | --- |
| KKVAK (listed as Solanum lycopersicum) [TsORF6-1-5aa-14, partial peptide of TsORF6-1, 5 amino acid residues] | 0 | 0 | 0 | 0 | 0 | 0 | 0 | 0 | 0 | 0 | 0 | 0 | 0 | Δ | – |
| KVAKM (listed as Solanum lycopersicum) [TsORF6-1-5aa-15, partial peptide of TsORF6-1, 5 amino acid residues] | 0 | 0 | 0 | 0 | 0 | 0 | 0 | 0 | 0 | 0 | 0 | 0 | 0 | Δ | – |
| KVKNK (listed as Solanum lycopersicum) [TsORF6-1-5aa-10, partial peptide of TsORF6-1, 5 amino acid residues] | 0 | 0 | 0 | 0 | 0 | 0 | 0 | 0 | 0 | 0 and 1 | 0 | 0 | 0 | Δ | – |
| KVMIV (listed as Solanum lycopersicum) [TsORF6-1-5aa-2, partial peptide of TsORF6-1, 5 amino acid residues] | 0 | 0 | 1 | 0 | 0 | 1 | 0 | 0 | 1 | 0 | 0 | 0 | 0 | ◯ | extremely excellent germination inhibitory activity |
| KVMIVVKT (listed as Solanum lycopersicum) [TsORF6-1-8aa-2, partial peptide of TsORF6-1, 8 amino acid residues] | 0 | 0 | 3 | 0 | 0 | 2 | 0 | 0 | 2 | 3 and 0 | 0 | 0 | 2 | ◯ | extremely excellent germination inhibitory activity |
| VKTKVKNK (listed as Solanum lycopersicum) [TsORF6-1-8aa-7, partial peptide of TsORF6-1, 8 amino acid residues] | 0 | 0 | 0 | 0 | 0 | 0 | 0 | 0 | 0 | 0 | 0 | 0 | 0 | – | – |
| VVKTK (listed as Solanum lycopersicum) [TsORF6-1-5aa-6, partial peptide of TsORF6-1, 5 amino acid residues] | 0 | 0 | 0 | 0 | 0 | 0 | 0 | 0 | 0 | 0 | 0 | 0 | 0 | – | – |
| VVKTKVKN (listed as Solanum lycopersicum) [TsORF6-1-8aa-6, partial peptide of TsORF6-1, 8 amino acid residues] | 0 | 0 | 0 | 0 | 0 | 0 | 0 | 0 | 0 | 0 | 0 | 0 | 0 | – | – |
